Source: US20250339425A1 (Northeastern University, priority 2024, published 2025)
Read-outs that look alike come from different tables or passages of the source.

Experiments:
human α7 nAChR = human α7 nAChR (Homo sapiens, UniProt P36544)
α9 nAChR [1] = biological target: T1, α9 nAChR (Homo sapiens, UniProt Q9UGM1)
α9α10 nAChR = biological target: T2, α9α10 nAChR (Homo sapiens, UniProt Q9GZZ6+Q9UGM1); experiment: Inhibition of ACh-evoked currents, co-application with 60 μM ACh, oocytes expressing α9α10; type: cell-based; details: co-applied with 60 μM ACh; unit not printed for these values (α9 values in μM); read-out: IC50 as antagonist on α9α10
T2 construct: expressed in transfected cells; host or cells: Xenopus laevis oocytes injected with in vitro transcribed RNA
T2 sequence (Q9UGM1 26-479 limits assumed): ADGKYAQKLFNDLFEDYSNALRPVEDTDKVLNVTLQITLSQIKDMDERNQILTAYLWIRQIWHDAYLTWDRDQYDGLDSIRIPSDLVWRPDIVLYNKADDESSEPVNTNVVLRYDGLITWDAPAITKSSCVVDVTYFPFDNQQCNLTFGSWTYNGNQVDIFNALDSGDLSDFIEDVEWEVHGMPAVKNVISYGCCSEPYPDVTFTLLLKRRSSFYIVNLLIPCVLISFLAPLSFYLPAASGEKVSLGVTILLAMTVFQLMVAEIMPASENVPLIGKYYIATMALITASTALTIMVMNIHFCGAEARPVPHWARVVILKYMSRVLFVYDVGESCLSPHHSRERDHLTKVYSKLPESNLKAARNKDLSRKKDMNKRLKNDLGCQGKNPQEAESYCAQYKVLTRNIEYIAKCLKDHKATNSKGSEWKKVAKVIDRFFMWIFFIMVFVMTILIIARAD
T2 sequence (Q9GZZ6 25-450): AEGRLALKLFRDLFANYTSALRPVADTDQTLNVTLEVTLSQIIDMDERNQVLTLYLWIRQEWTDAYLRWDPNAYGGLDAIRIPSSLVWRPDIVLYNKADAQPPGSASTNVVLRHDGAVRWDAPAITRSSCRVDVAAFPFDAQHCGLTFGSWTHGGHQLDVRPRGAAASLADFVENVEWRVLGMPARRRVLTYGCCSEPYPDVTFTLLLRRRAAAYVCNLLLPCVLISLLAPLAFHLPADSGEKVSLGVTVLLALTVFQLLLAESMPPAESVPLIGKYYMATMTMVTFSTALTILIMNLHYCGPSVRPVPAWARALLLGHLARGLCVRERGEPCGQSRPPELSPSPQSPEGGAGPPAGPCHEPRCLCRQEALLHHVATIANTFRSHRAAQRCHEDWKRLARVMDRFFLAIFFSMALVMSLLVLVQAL
Procedure: (§1) FIGS. 13A-13B show inhibition concentration-response studies for chiral diMPP compounds (2R)PA-diMPP (8) and (2S)PA-diMPP (9), identified as α9 and α9α10 antagonists.
(§2) Experimental responses were measured relative to the preceding ACh control response. […] The transition from agonist to antagonist behavior in α7 to α9* nAChRs indicates a slightly bigger dialkyl tail on nitrogen, or perhaps more importantly, the asymmetry of the groups and potential for multiple rotamers is important for α9 agonism, while chirality is more important for α7 selectivity.
(§3) Two-electrode voltage-clamp experiments were conducted using OpusXpress 6000A (Molecular Devices, Union City CA, USA). Both the voltage and current electrodes were filled with 3 M KCl. Oocytes were voltage-clamped at −60 mV at room temperature. The oocytes were perfused with Ringer's solution (115 mM NaCl, 2.5 mM KCl, 1.8 mM CaCl2), 10 mM HEPES, 1 μM atropine, pH 7.2) at 2 ml/min. […] Drug applications were 12 s in duration followed by 181 s washout periods.

[2] = test system: BzATP-induced release of IL-1β by human monocytic THP-1 cells; experiment: BzATP-induced release of IL-1β by LPS-primed monocytic THP-1 cells (ELISA)
Procedure: Monocytic THP-1 cells were primed with lipopolysaccharide (LPS; 1 μg/ml, 5 hours). Thereafter, the P2X7 receptor agonist BzATP (100 μM) was added for another 40 minutes to trigger IL-1β release. […] The IL-1β concentrations obtained after stimulation with BzATP+solvent were set to 100% and all other values were calculated accordingly. Data are presented as individual data points, the bar represents the median, and whiskers encompass the 25th to 75th percentile. *p≤0.05, different from LPS-primed cells stimulated with BzATP alone. Friedman test followed by the Wilcoxon signed-rank test.
The new compounds were tested for the ability to down-regulate the ATP-mediated release of 10 IL-1β by human monocytic THP-1 cells.
Monocytic THP-1 cells were primed with lipopolysaccharide (LPS, 1 μg/ml) for 5 hours and further stimulated them with BzATP (100 μg/ml) for 40 minutes to induce the maturation and release of IL-1β.
The monocytic THP-1 cell line was obtained from the German Collection of Microorganisms and Cell Cultures (Braunschweig, Germany). […] Thereafter, 0.5×10^6 cells/0.5 ml and per well were seeded in 48-well plates (Greiner Bio-One, Frickenhausen, Germany) as described previously.^27 The cells were primed with LPS (1 μg/ml; E. coli O26:B6, Merck, Darmstadt, Germany, Cat #L2654) for 5 h under 5% CO2 atmosphere at 37° C. […] After the treatment, cells were spun down (500 g, 8 min, 4° C.) to collect the cell-free supernatants, that were stored at −20° C. for later measurements of IL-1β and lactate dehydrogenase (LDH) activity.
To measure IL-1β concentrations in the cell-free supernatants the Human IL-1 beta/IL-1F2 DuoSet enzyme-linked immunosorbent assay (ELISA) from R&D Systems (Cat #DY201) was used according to the supplier's instructions. In parallel, LDH activity was measured to test for cell viability at the end of the cell culture experiments, using the CytoTox 96® Non-Radioactive Cytotoxicity Assay (Promega, Madison, WI, United States; Cat #G1780) according to the supplier's instructions.
Results obtained in the BzATP-induced IL-1β release experiments were analyzed using SPSS (Version 27, IBM, Armonk, NY, United States). The data were analyzed first by the Friedman test followed by the Wilcoxon signed-rank test. […] The number (n) of individual experiments is indicated in the Figures and refers to independent experiments, which were performed on different days with different cell passages.

α9 nAChR [3] = biological target: T1, α9 nAChR; experiment: Inhibition of ACh-evoked currents, co-application with 60 μM ACh, oocytes expressing α9; type: cell-based; design: expressed in transfected cells; host or cells: Xenopus laevis oocytes injected with in vitro transcribed RNA; details: co-applied with 60 μM ACh; read-out: IC50 as antagonist on α9
Procedure: as §1, §2, §3

α9 nAChR [4] = biological target: T1, α9 nAChR; experiment: cell-based
[5] = test system: CFA-induced inflammatory pain in mice; details: previously reported α9 nAChR agonist; cited from earlier work
in vitro = details: BALB/c, mouse, pooled mouse plasma

T1 sequence (Q9UGM1 26-479 limits assumed): as the sequence (Q9UGM1 26-479 limits assumed) above
human α7 nAChR, sequence (P36544 23-502): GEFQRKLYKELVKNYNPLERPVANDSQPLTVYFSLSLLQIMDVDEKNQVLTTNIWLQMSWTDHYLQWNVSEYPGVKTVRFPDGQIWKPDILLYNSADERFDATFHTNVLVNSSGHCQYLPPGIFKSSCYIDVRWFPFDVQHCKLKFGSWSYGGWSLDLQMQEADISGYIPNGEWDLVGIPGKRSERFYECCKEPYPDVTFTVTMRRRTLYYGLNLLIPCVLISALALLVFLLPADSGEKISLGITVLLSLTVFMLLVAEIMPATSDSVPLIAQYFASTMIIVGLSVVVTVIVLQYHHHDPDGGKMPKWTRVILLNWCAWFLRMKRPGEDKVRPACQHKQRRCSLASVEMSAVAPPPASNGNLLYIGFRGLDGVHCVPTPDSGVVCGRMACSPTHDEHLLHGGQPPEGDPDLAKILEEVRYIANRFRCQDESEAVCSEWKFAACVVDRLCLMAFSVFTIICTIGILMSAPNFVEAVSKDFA

Compound | EC50 (human α7 nAChR) | α7 Imax (human α7 nAChR; Table 3) | α9 Imax (α9 nAChR [1]; Table 3, reverse amide GATs) | EC50 (α9 nAChR [4]) | further results
Cc1cccc(NC(=O)c2ccc(N3CC[N+](C)(C)[C@H](C)C3)cc2)n1 [IV-f] |  |  |  |  | α7 Imax (human α7 nAChR; Table 2, chiral compounds): 0.426 ± 0.021; α7 Imax (human α7 nAChR; Table 4): 0.426 ± 0.02; EC50 (human α7 nAChR; read-out: α7 EC50, Table 2, unit inferred): 3.06 ± 0.38 µM; EC50 (human α7 nAChR; read-out: α7 EC50, Table 4, unit inferred): 3.06 ± 0.38 µM; receptor selectivity α9 vs α7 (α9 nAChR [1]): selective for α7; type of activity at α9 / α9* nAChR (α9 nAChR [1]): antagonists of the alpha 9 nicotinic acetylcholine receptor; α9 Imax (α9 nAChR [1]; Table 2, chiral compounds): 0.0065 ± 0.72; α9 Imax (α9 nAChR [1]; Table 4, chiral EMPPs and diMPPs): 0.0065 ± 0.72; type of activity at α9 / α9* nAChR (α9 nAChR [1]; listed as (2R)PA-diMPP): lost nearly all agonist activity for α9* receptors; IC50 (α9α10 nAChR): 0.406 ± 0.15 µM; inhibition of BzATP-induced release of IL-1β ([2]; LPS-primed THP-1 cells, BzATP, ACh at 10 μM): significantly inhibited; antagonism of the effect of ACh on IL-1β release ([2]; all concentrations investigated (1 nM to 100 μM), ACh 10 μM): significantly antagonized the effect of ACh; IC50 (α9 nAChR [3]): 0.21 ± 0.06 µM
CC[N+]1(C)CCN(c2ccc(NC(=O)c3cccc(Br)n3)cc2)CC1 [V-a] | 7.1 ± 3.17 µM | 0.094 ± 0.012 | 0.936 ± 0.04 | 0.44 ± 0.108 µM | 
CC[N+]1(C)CCN(c2ccc(NC(=O)c3cccc(Cl)n3)cc2)CC1 [V-b] | 14 µM | 0.10 ± 0.028 | 1.00 ± 0.18 | 0.56 ± 0.065 µM | 
CC[N+]1(C)CCN(c2ccc(NC(=O)c3cccc(F)n3)cc2)CC1 [V-c] |  | 0.000 ± 0.000 | 1.2 ± 0.13 | 0.81 ± 0.38 µM | 
CC[N+]1(C)CCN(c2ccc(NC(=O)c3ccc4ccccc4n3)cc2)CC1 [V-f] | 2.03 ± 0.54 µM | 0.124 ± 0.009 | 1.008 ± 0.048 | 0.157 µM | 
CC[N+]1(C)CCN(c2ccc(NC(=O)c3ccc(C)cn3)cc2)CC1 [V-h] | 315 µM | 0.266 ± 0.33 | 1.00 ± 0.08 | 0.44 ± 0.14 µM | 
CC[N+]1(C)CCN(c2ccc(NC(=O)c3ncc(C(F)(F)F)cc3Cl)cc2)CC1 [V-i] |  | 0.001 ± 0.14 | 1.23 ± 0.13 | 0.81 ± 0.38 µM | 
CC[N+]1(CC)CCN(c2ccc(C#N)cc2)CC1 [pCN-diEPP] |  |  |  |  | effective duration against CFA-induced pain like behaviors [5]: 3 to 6 h
CCN(CC)CCOC(=O)c1ccc(N)cc1 [procaine] |  |  |  |  | half-life at 1 μM (in vitro): < 5 min
